In patent US20240122182A1, “PESTICIDALLY ACTIVE HETEROCYCLIC DERIVATIVES WITH SULFUR CONTAINING SUBSTITUENTS” (SYNGENTA CROP PROTECTION AG, priority 2021, published 2024):

Key:
Format in all cases: in vivo
[1] = test system: Myzus persicae (Green Peach Aphid); test: Activity against Myzus persicae (green peach aphid), feeding/contact activity; conditions: 144 h, application rate of 200 ppm, mixed ages, 6 days after infestation
Procedure: Sunflower leaf discs were placed onto agar in a 24-well microtiter plate and sprayed with aqueous test solutions prepared from 10′000 ppm DMSO stock solutions. After drying, the leaf discs were infested with an aphid population of mixed ages. The samples were assessed for mortality 6 days after infestation.

[2] = test system: Diabrotica Balteata (Corn Root Worm); test: Activity against Diabrotica balteata (corn root worm), maize sprouts sprayed; conditions: 96 h, application rate of 200 ppm, L2 larvae, 4 days after infestation, read-out: effect in at least one of the two categories (mortality or growth inhibition)
Procedure: Maize sprouts placed onto an agar layer in 24-well microtiter plates were treated with aqueous test solutions prepared from 10′000 ppm DMSO stock solutions by spraying. After drying, the plates were infested with L2 larvae (6 to 10 per well). The samples were assessed for mortality and growth inhibition in comparison to untreated samples 4 days after infestation.

[3] = test system: Euschistus heros (Neotropical Brown Stink Bug); test: Activity against Euschistus heros (neotropical brown stink bug), soybean leaves sprayed; conditions: 120 h, application rate of 200 ppm, N2 nymphs, 5 days after infestation, read-out: effect in at least one of the two categories (mortality or growth inhibition)
Procedure: Soybean leaves on agar in 24-well microtiter plates were sprayed with aqueous test solutions prepared from 10′000 ppm DMSO stock solutions. After drying the leaves were infested with N2 nymphs. The samples were assessed for mortality and growth inhibition in comparison to untreated samples 5 days after infestation.

[4] = test system: Chilo suppressalis (Striped Rice Stemborer); test: Activity against Chilo suppressalis (striped rice stemborer), artificial diet; conditions: 144 h, application rate of 200 ppm, L2 larvae, 6 days after infestation, read-out: control (mortality, anti-feeding effect, growth inhibition)
Procedure: 24-well microtiter plates with artificial diet were treated with aqueous test solutions prepared from 10′000 ppm DMSO stock solutions by pipetting. After drying, the plates were infested with L2 larvae (6-8 per well). The samples were assessed for mortality, anti-feeding effect, and growth inhibition in comparison to untreated samples 6 days after infestation. Control of Chilo suppressalis by a test sample is given when at least one of the categories mortality, anti-feedant effect, and growth inhibition is higher than the untreated sample.

[5] = test system: Spodoptera littoralis (Egyptian Cotton Leaf Worm); test: Activity against Spodoptera littoralis (Egyptian cotton leaf worm), cotton leaf discs sprayed; conditions: foliar, 72 h, application rate of 200 ppm, L1 larvae, 3 days after infestation, read-out: control (mortality, anti-feeding effect, growth inhibition)
Procedure: Cotton leaf discs were placed onto agar in 24-well microtiter plates and sprayed with aqueous test solutions prepared from 10′000 ppm DMSO stock solutions. After drying the leaf discs were infested with five L1 larvae. The samples were assessed for mortality, anti-feeding effect, and growth inhibition in comparison to untreated samples 3 days after infestation. Control of Spodoptera littoralis by a test sample is given when at least one of the categories mortality, anti-feedant effect, and growth inhibition is higher than the untreated sample.

[6] = test system: Plutella xylostella (Diamond Back Moth); test: Activity against Plutella xylostella (diamond back moth), artificial diet; conditions: 192 h, application rate of 200 ppm, eggs, 8 days after infestation, read-out: effect in at least one of the two categories (mortality or growth inhibition)
Procedure: 24-well microtiter plates with artificial diet were treated with aqueous test solutions prepared from 10′000 ppm DMSO stock solutions by pipetting. After drying, Plutella eggs were pipetted through a plastic stencil onto a gel blotting paper and the plate was closed with it. The samples were assessed for mortality and growth inhibition in comparison to untreated samples 8 days after infestation.

[7] = test system: Carpocapsa (Cydia) Pomonella (Codling Moth); test: Activity against Carpocapsa (Cydia) pomonella (codling moth), larvicide, feeding/contact; conditions: 336 h, application rate of 12.5 ppm, L1 larvae, 14 days after infestation, read-out: effect in at least one of the two categories (mortality or growth inhibition)
Procedure: Diet cubes coated with paraffin were sprayed with diluted test solutions in an application chamber. After drying off the treated cubes (10 replicates) were infested with 1 L1 larvae. Samples were incubated at 26-27° C. and checked 14 days after infestation for mortality and growth inhibition. The following compounds gave an effect of at least 80% in at least one of the two categories (mortality or growth inhibition) at an application rate of 12.5 ppm: P1, P2, P3, P5, P9, P10, P11, P12, P14, P17, P19, P20, P21, P23, P24, P30, P31.

[8] = test system: Nilaparvata lugens (Brown Plant Hopper); test: Activity against Nilaparvata lugens (brown plant hopper), larvicide, systemic into water; conditions: 168 h, application rate of 12.5 ppm, N3 nymphs, 7 days after infestation
Procedure: Larvicide, systemic into water Rice plants cultivated in a nutritive solution were treated with the diluted test solutions into nourishing cultivation system. 1 day after application plants were infested with ˜20 N3 nymphs. 7 days after infestation samples were assessed for mortality and growth regulation.

CCSc1cc(N(C)C(C)=O)cnc1-c1cc2c(cn1)N(CC(F)(F)C(F)(F)F)C(=O)CC2 [P7, N-[5-ethylsulfanyl-6-[2-oxo-1-(2,2,3,3,3-pentafluoropropyl)-3,4-dihydro-1,7-naphthyridin-6-yl]-3-pyridyl]-N-methyl-acetamide]
≥ 80%: mortality at 200 ppm [1]

CCSc1cc(C(C)(C)C#N)cnc1-c1cc2c(cn1)N(CC(F)(F)C(F)(F)F)C(=O)OC2 [P33, 2-[5-ethylsulfanyl-6-[2-oxo-1-(2,2,3,3,3-pentafluoropropyl)-4H-pyrido[3,4-d][1,3]oxazin-6-yl]-3-pyridyl]-2-methyl-propanenitrile]
≥ 80%: percent effect (mortality or growth inhibition) at 200 ppm [2] | percent effect (mortality or growth inhibition) at 200 ppm [3] | mortality at 200 ppm [4]

CCSc1cc(OCC(C)(F)F)cnc1-c1cc2c(cn1)N(CC(F)(F)C(F)(F)F)C(=O)CC2 [P25, 6-[5-(2,2-difluoropropoxy)-3-ethylsulfanyl-2-pyridyl]-1-(2,2,3,3,3-pentafluoropropyl)-3,4-dihydro-1,7-naphthyridin-2-one]
≥ 80%: percent effect (mortality or growth inhibition) at 200 ppm [2] | mortality at 200 ppm [5] | percent effect (mortality or growth inhibition) at 200 ppm [6] | mortality at 200 ppm [4]

CCSc1cc(C2(C#N)CC2)cnc1-c1cc2c(cn1)N(CC(F)(F)F)C(=O)OC2 [P35, 1-[5-ethylsulfanyl-6-[2-oxo-1-(2,2,2-trifluoroethyl)-4H-pyrido[3,4-d][1,3]oxazin-6-yl]-3-pyridyl]cyclopropanecarbonitrile]
≥ 80%: percent effect (mortality or growth inhibition) at 200 ppm [2] | percent effect (mortality or growth inhibition) at 200 ppm [6]

CCS(=O)(=O)c1ccc(-n2cncn2)nc1-c1cc2c(cn1)N(CC(F)(F)C(F)(F)F)C(=O)OC2 [P16, 6-[3-ethylsulfonyl-6-(1,2,4-triazol-1-yl)-2-pyridyl]-1-(2,2,3,3,3-pentafluoropropyl)-4H-pyrido[3,4-d][1,3]oxazin-2-one]
≥ 80%: percent effect (mortality or growth inhibition) at 200 ppm [2] | mortality at 200 ppm [1] | mortality at 200 ppm [5] | percent effect (mortality or growth inhibition) at 200 ppm [6] | mortality at 200 ppm [4]

CC[S+]([O-])c1cc(OCC(C)(F)F)cnc1-c1cc2c(cn1)N(CC(F)(F)C(F)(F)F)C(=O)OC2 (centres unmarked) [P32, 6-[5-(2,2-difluoropropoxy)-3-ethylsulfinyl-2-pyridyl]-1-(2,2,3,3,3-pentafluoropropyl)-4H-pyrido[3,4-d][1,3]oxazin-2-one]
≥ 80%: percent effect (mortality or growth inhibition) at 200 ppm [2] | mortality at 200 ppm [5] | percent effect (mortality or growth inhibition) at 200 ppm [6]

CCS(=O)(=O)c1cc(OCC(C)(F)F)cnc1-c1cc2c(cn1)N(CC(F)(F)C(F)(F)F)C(=O)OC2 [P31, 6-[5-(2,2-difluoropropoxy)-3-ethylsulfonyl-2-pyridyl]-1-(2,2,3,3,3-pentafluoropropyl)-4H-pyrido[3,4-d][1,3]oxazin-2-one]
≥ 80%: percent effect (mortality or growth inhibition) at 200 ppm [2] | percent effect (mortality or growth inhibition) at 12.5 ppm [7] | mortality at 200 ppm [5] | percent effect (mortality or growth inhibition) at 200 ppm [6] | mortality at 12.5 ppm [8] | mortality at 200 ppm [4]

CCSc1cc(N(C)C(C)=O)cnc1-c1cc2c(cn1)N(CC(F)(F)C(F)(F)F)C(=O)OC2 [P29, N-[5-ethylsulfanyl-6-[2-oxo-1-(2,2,3,3,3-pentafluoropropyl)-4H-pyrido[3,4-d][1,3]oxazin-6-yl]-3-pyridyl]-N-methyl-acetamide]
≥ 80%: mortality at 200 ppm [1] | mortality at 200 ppm [5] | percent effect (mortality or growth inhibition) at 200 ppm [6] | mortality at 200 ppm [4]

CCS(=O)(=O)c1cc(C2CC2)cnc1-c1cc2c(cn1)N(CC(F)(F)C(F)(F)F)C(=O)CC2 [P19, 6-(5-cyclopropyl-3-ethylsulfonyl-2-pyridyl)-1-(2,2,3,3,3-pentafluoropropyl)-3,4-dihydro-1,7-naphthyridin-2-one]
≥ 80%: percent effect (mortality or growth inhibition) at 200 ppm [2] | percent effect (mortality or growth inhibition) at 12.5 ppm [7] | mortality at 200 ppm [5] | percent effect (mortality or growth inhibition) at 200 ppm [6] | mortality at 12.5 ppm [8] | mortality at 200 ppm [4]

CCSc1cc(C(F)(F)F)cnc1-c1cc2c(cn1)N(CC(F)(F)C(F)(F)F)C(=O)OC2 [P26, 6-[3-ethylsulfanyl-5-(trifluoromethyl)-2-pyridyl]-1-(2,2,3,3,3-pentafluoropropyl)-4H-pyrido[3,4-d][1,3]oxazin-2-one]
≥ 80%: percent effect (mortality or growth inhibition) at 200 ppm [2] | percent effect (mortality or growth inhibition) at 200 ppm [6] | mortality at 200 ppm [4]

CCS(=O)(=O)c1cc(-n2ccc(Cl)n2)cnc1-c1cc2c(cn1)N(CC(F)(F)C(F)(F)F)C(=O)CC2 [P5, 6-[5-(3-chloropyrazol-1-yl)-3-ethylsulfonyl-2-pyridyl]-1-(2,2,3,3,3-pentafluoropropyl)-3,4-dihydro-1,7-naphthyridin-2-one]
≥ 80%: percent effect (mortality or growth inhibition) at 200 ppm [2] | percent effect (mortality or growth inhibition) at 12.5 ppm [7] | mortality at 200 ppm [5] | percent effect (mortality or growth inhibition) at 200 ppm [6] | percent effect (mortality or growth inhibition) at 200 ppm [3] | mortality at 200 ppm [4]

CCSc1cc(OCC(C)(F)F)cnc1-c1cc2c(cn1)N(CC(F)(F)C(F)(F)F)C(=O)OC2 [P27, 6-[5-(2,2-difluoropropoxy)-3-ethylsulfanyl-2-pyridyl]-1-(2,2,3,3,3-pentafluoropropyl)-4H-pyrido[3,4-d][1,3]oxazin-2-one]
≥ 80%: percent effect (mortality or growth inhibition) at 200 ppm [2] | mortality at 200 ppm [5] | percent effect (mortality or growth inhibition) at 200 ppm [6] | percent effect (mortality or growth inhibition) at 200 ppm [3] | mortality at 200 ppm [4]

CCSc1cc(NC)cnc1-c1cc2c(cn1)N(CC(F)(F)C(F)(F)F)C(=O)OC2 [P28, 6-[3-ethylsulfanyl-5-(methylamino)-2-pyridyl]-1-(2,2,3,3,3-pentafluoropropyl)-4H-pyrido[3,4-d][1,3]oxazin-2-one]
≥ 80%: percent effect (mortality or growth inhibition) at 200 ppm [6]

CCSc1cc(C2(C#N)CC2)cnc1-c1cc2c(cn1)N(CC(F)(F)F)C(=O)CC2 [P6, 1-[5-ethylsulfanyl-6-[2-oxo-1-(2,2,2-trifluoroethyl)-3,4-dihydro-1,7-naphthyridin-6-yl]-3-pyridyl]cyclopropanecarbonitrile]
≥ 80%: percent effect (mortality or growth inhibition) at 200 ppm [2] | mortality at 200 ppm [5] | percent effect (mortality or growth inhibition) at 200 ppm [6] | percent effect (mortality or growth inhibition) at 200 ppm [3] | mortality at 200 ppm [4]

CCS(=O)(=O)c1ccc(-n2cncn2)nc1-c1cc2c(cn1)N(CC(F)(F)C(F)(F)F)C(=O)CC2 [P13, 6-[3-ethylsulfonyl-6-(1,2,4-triazol-1-yl)-2-pyridyl]-1-(2,2,3,3,3-pentafluoropropyl)-3,4-dihydro-1,7-naphthyridin-2-one]
≥ 80%: percent effect (mortality or growth inhibition) at 200 ppm [2] | mortality at 200 ppm [1] | mortality at 200 ppm [5] | percent effect (mortality or growth inhibition) at 200 ppm [6] | mortality at 200 ppm [4]

CCS(=O)(=O)c1cc(Oc2ccccn2)cnc1-c1cc2c(cn1)N(CC(F)(F)C(F)(F)F)C(=O)CC2 [P21, 6-[3-ethylsulfonyl-5-(2-pyridyloxy)-2-pyridyl]-1-(2,2,3,3,3-pentafluoropropyl)-3,4-dihydro-1,7-naphthyridin-2-one]
≥ 80%: percent effect (mortality or growth inhibition) at 200 ppm [2] | percent effect (mortality or growth inhibition) at 12.5 ppm [7] | mortality at 200 ppm [5] | percent effect (mortality or growth inhibition) at 200 ppm [6] | percent effect (mortality or growth inhibition) at 200 ppm [3] | mortality at 200 ppm [4]
